Measurements as given in ChEMBL document CHEMBL2074516, “cDNA structure, genomic organization, and promoter analysis of the mouse intestinal peptide transporter PEPT1” (Biochim Biophys Acta, 2000).
Where a SMILES comes first, the peptide text is derived from it. [ ]: non-standard residue; d: D form. Sar = CNCC(=O)O

How the values were obtained:
[1] = target: T1, Solute carrier family 15 member 1 (Mus musculus) (UniProt Q9JIP7); test: TP_TRANSPORTER: uptake in PEPT1-expressing HRPE cells; assay type: functional, cell-based
T1 sequence (whole entry): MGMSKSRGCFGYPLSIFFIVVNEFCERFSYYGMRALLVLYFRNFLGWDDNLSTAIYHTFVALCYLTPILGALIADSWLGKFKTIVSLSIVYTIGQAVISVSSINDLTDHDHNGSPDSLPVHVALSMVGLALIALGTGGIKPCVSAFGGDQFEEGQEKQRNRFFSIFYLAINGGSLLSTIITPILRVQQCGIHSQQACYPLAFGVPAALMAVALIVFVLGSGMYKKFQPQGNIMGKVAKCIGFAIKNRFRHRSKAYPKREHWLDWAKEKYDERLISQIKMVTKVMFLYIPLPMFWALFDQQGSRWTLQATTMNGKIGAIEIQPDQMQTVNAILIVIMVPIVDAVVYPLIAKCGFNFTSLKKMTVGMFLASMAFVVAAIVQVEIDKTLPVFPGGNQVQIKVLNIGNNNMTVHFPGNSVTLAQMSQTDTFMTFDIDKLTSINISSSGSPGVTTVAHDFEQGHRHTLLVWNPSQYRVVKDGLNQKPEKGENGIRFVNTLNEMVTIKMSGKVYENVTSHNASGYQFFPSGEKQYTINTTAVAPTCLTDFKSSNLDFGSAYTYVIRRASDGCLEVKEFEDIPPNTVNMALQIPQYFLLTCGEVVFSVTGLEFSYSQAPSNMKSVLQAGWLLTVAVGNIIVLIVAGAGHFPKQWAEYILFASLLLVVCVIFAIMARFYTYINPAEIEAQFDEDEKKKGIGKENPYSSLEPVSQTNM

[2] = target: T1, Solute carrier family 15 member 1 (Mus musculus); test: TP_TRANSPORTER: uptake in Xenopus laevis oocytes; assay type: functional, cell-based; conditions: Oocyte

Activity [1]: substrate [+] | Activity [2]: substrate [+]
Structure (SMILES): CN(CC(=O)O)C(=O)CN (H-Gly-[Sar]-OH)
